Marks after values point to notes of the source that are not given here.
Experiments:
Assay type in all cases: in vivo
Septoria tritici = experiment: Test G: wheat leaf blotch on wheat seedlings, sprayed the day before inoculation, visual disease rating; details: 100 = 100% disease control
Method in brief: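 Spray to run-off, 200 ppm (≈500 g/ha; starred = 40 ppm), acetone/water 50/50 + 250 ppm Trem® 014. Spore inoculation +1 d. 24° C saturated 48 h → 20° C 19 d. Visual rating.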

Rhizoctonia solani = experiment: Test B: turf brown patch on bentgrass seedlings, sprayed the day before inoculation, visual disease rating; details: 200 ppm, 100 = 100% disease control
Excerpt: General protocol for preparing test suspensions for Tests A-J: The test compounds were first dissolved in acetone in an amount equal to 3% of the final volume and then suspended at the desired concentration (in ppm) in acetone and purified water (50/50 mix) containing 250 ppm of the surfactant Trem® 014 (polyhydric alcohol esters). The resulting test suspensions were then used in tests A-J. Spraying a 200 ppm test suspension to the point of run-off on the test plants was the equivalent of a rate of 500 g/ha. […] The test suspension was sprayed to the point of run-off on bentgrass (Agrostis sp.) seedlings. […] A dash (-) indicates no test results. All results are for 200 ppm except where followed by “*”, which indicates 40 ppm.

[1] = system: Erysiphe graminis f. sp. tritici; experiment: Test J: wheat powdery mildew on wheat seedlings, sprayed the day before inoculation, visual disease rating; details: 100 = 100% disease control
Method in brief: (§1)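 Compounds were dissolved in acetone (3% of final volume), then suspended in 50/50 acetone/water with 250 ppm Trem 014 surfactant and sprayed to run-off on test plants. A 200 ppm suspension equals 500 g/ha. Ratings are at 200 ppm unless flagged as 40 ppm.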

Plasmopara viticola = experiment: Test A: grape downy mildew, test suspension sprayed after inoculation of grape seedlings, visual disease rating; details: 200 ppm, 100 = 100% disease control
Excerpt: General protocol for preparing test suspensions for Tests A-J: The test compounds were first dissolved in acetone in an amount equal to 3% of the final volume and then suspended at the desired concentration (in ppm) in acetone and purified water (50/50 mix) containing 250 ppm of the surfactant Trem® 014 (polyhydric alcohol esters). The resulting test suspensions were then used in tests A-J. Spraying a 200 ppm test suspension to the point of run-off on the test plants was the equivalent of a rate of 500 g/ha. […] Grape seedlings were inoculated with a spore suspension of Plasmopara viticola (the causal agent of grape downy mildew) and incubated in a saturated atmosphere at 20° C. for 24 h. After a short drying period, the grape seedlings were sprayed with the test suspension to the point of run-off and then moved to a growth chamber at 20° C. for 5 days, after which time the grape seedlings were placed back into a saturated atmosphere at 20° C. for 24 h. Upon removal, visual disease ratings were made. […] A dash (-) indicates no test results.

Septoria nodorum = experiment: Test F: wheat glume blotch on wheat seedlings, sprayed the day before inoculation, visual disease rating; details: 100 = 100% disease control
Method in brief: as §1

Phytophthora infestans = details: 200 ppm; 100 = 100% disease control, 0 = no control relative to controls
Botrytis cinerea = experiment: Test C: tomato Botrytis on tomato seedlings, sprayed the day before inoculation, visual disease rating; details: 100 = 100% disease control
Method in brief: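 Tomato seedlings sprayed to run-off with compound suspended in acetone/water with 250 ppm Trem 014 surfactant, at 200 ppm (≈500 g/ha) or 40 ppm where marked, one day before Botrytis cinerea inoculation. Disease rated visually.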

Alternaria solani = experiment: Test D: tomato early blight, sprayed the day before inoculation, visual disease rating; details: 100 = 100% disease control
Method in brief: as §1

[2] = system: Puccinia recondita f. sp. tritici; experiment: Test I: wheat leaf rust on wheat seedlings, sprayed the day before inoculation, visual disease rating; details: 100 = 100% disease control
Method in brief: as §1

[3] = system: Puccinia recondita f. sp. tritici; experiment: Test H: wheat leaf rust, test suspension sprayed after inoculation of wheat seedlings, visual disease rating; details: 100 = 100% disease control
Method in brief: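 Wheat seedlings inoculated with P. recondita spores, held 24 h saturated at 20 °C, then 2 days in growth chamber at 20 °C; compound suspension (acetone/water with Trem 014) sprayed to run-off afterwards. Rated visually; 200 ppm (≈500 g/ha) unless marked *, which denotes 40 ppm.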

[4] = 0 = no control relative to controls
[5] = 200 ppm, 0 = no control relative to controls
[6] = 40 ppm (marked *), 0 = no control

| Structure (SMILES) | Test E disease control rating (Phytophthora infestans) [%] | Test G disease control rating (Septoria tritici; [5]) [%] | Test J disease control rating [1, 5] [%] | Test F disease control rating (Septoria nodorum; [5]) [%] | Test C disease control rating (Botrytis cinerea; [5]) [%] | Test D disease control rating (Alternaria solani; [5]) [%] | Test I disease control rating [2, 5] [%] | Test H disease control rating [3, 5] [%] | further results |
| --- | --- | --- | --- | --- | --- | --- | --- | --- | --- |
| Cc1nc(Cl)c(-c2ccc(F)cc2)n1-c1ccc(Cl)cc1 [Compound 5, 4-chloro-1-(4-chlorophenyl)-5-(4-fluorophenyl)-2-methyl-1H-imidazole] | 0 |  |  |  |  |  |  |  | pest or weed control at 200 ppm (Septoria tritici; Zymoseptoria tritici, 504 h, 200 ppm, 0 = no control relative to controls): 100%; Test B disease control rating (Rhizoctonia solani; [4]): 38%; pest or weed control at 200 ppm ([1]; Blumeria graminis, 168 h, 200 ppm, 0 = no control relative to controls): 99%; Test A disease control rating (Plasmopara viticola; [4]): 0%; pest or weed control at 200 ppm (Septoria nodorum; Parastagonospora nodorum, 264 h, 200 ppm, 0 = no control relative to controls): 0%; pest or weed control at 200 ppm (Botrytis cinerea; Botrytis cinerea, 120 h, 200 ppm, 0 = no control relative to controls): 98%; pest or weed control at 200 ppm (Alternaria solani; Alternaria solani, 168 h, 200 ppm, 0 = no control relative to controls): 99%; pest or weed control at 200 ppm ([2]; Puccinia recondita, 168 h, 200 ppm, 0 = no control relative to controls): 88% |
| COc1ccc(-c2c(OC)nn(C)c2-c2c(F)cc(OC)cc2F)cc1 [compound 580] | 0 | 100 | 90 | 0 | 98 | 0 | 84 |  | Test B disease control rating (Rhizoctonia solani; [4]): 88%; Test A disease control rating (Plasmopara viticola; [4]): 0% |
| COc1cc(F)c(-c2c(C)nn(C)c2-c2ccc(Cl)c(OC)c2)c(F)c1 [compound 111] | 0 | 100 | 99 | 100 | 99 | 99 | 89 |  | Test B disease control rating (Rhizoctonia solani; [4]): 81% |
| Cc1cc(C)nc(-c2cnnn2-c2cc(Cl)cc(Cl)c2)n1 [compound 644] | 0 | 0 | 0 | 0 | 94 | 0 | 0 |  | Test A disease control rating (Plasmopara viticola; [4]): 0% |
| Cc1ccc(-n2cnc(Cl)c2-c2c(F)cccc2Cl)cc1 [compound 181] |  |  |  |  |  |  |  |  | Test G disease control rating (Septoria tritici; 200 ppm, 0 = no control): 94%; Test B disease control rating (Rhizoctonia solani; 0 = no control): 24%; Test J disease control rating ([1]; 200 ppm, 0 = no control): 99%; Test F disease control rating (Septoria nodorum; 200 ppm, 0 = no control): 0%; Test C disease control rating (Botrytis cinerea; 200 ppm, 0 = no control): 99%; Test D disease control rating (Alternaria solani; 200 ppm, 0 = no control): 0%; Test I disease control rating ([2]; 200 ppm, 0 = no control): 98% |
| Fc1ccc(-n2cnc(Cl)c2-c2ccc(F)cc2Cl)cc1 [compound 178] |  |  |  |  |  |  |  |  | Test G disease control rating (Septoria tritici; 200 ppm, 0 = no control): 100%; Test B disease control rating (Rhizoctonia solani; 0 = no control): 0%; Test J disease control rating ([1]; 200 ppm, 0 = no control): 100%; Test A disease control rating (Plasmopara viticola; 0 = no control): 9%; Test F disease control rating (Septoria nodorum; 200 ppm, 0 = no control): 0%; Test C disease control rating (Botrytis cinerea; 200 ppm, 0 = no control): 99%; Test D disease control rating (Alternaria solani; 200 ppm, 0 = no control): 99%; Test I disease control rating ([2]; 200 ppm, 0 = no control): 74% |
| Fc1ccc(-n2cnc(Cl)c2-c2c(F)cccc2Cl)cc1 [compound 180] |  |  |  |  |  |  |  |  | Test G disease control rating (Septoria tritici; 200 ppm, 0 = no control): 98%; Test B disease control rating (Rhizoctonia solani; 0 = no control): 88%; Test J disease control rating ([1]; 200 ppm, 0 = no control): 100%; Test A disease control rating (Plasmopara viticola; 0 = no control): 0%; Test F disease control rating (Septoria nodorum; 200 ppm, 0 = no control): 0%; Test C disease control rating (Botrytis cinerea; 200 ppm, 0 = no control): 99%; Test D disease control rating (Alternaria solani; 200 ppm, 0 = no control): 99%; Test I disease control rating ([2]; 200 ppm, 0 = no control): 99% |
| Cc1nn(C)c(-c2ccc(Cl)c(F)c2)c1-c1c(F)cc(F)cc1F [compound 104] | 0 | 32 | 95 | 0 | 92 | 98 | 0 |  | Test B disease control rating (Rhizoctonia solani; [4]): 0% |
| COc1cc(F)c(-c2c(C)nn(C)c2-c2ccc(Cl)c(F)c2)c(F)c1 [compound 115] | 0 | 99 | 100 | 98 | 99 | 99 | 98 |  | Test B disease control rating (Rhizoctonia solani; [4]): 99% |
| COc1cc(F)c(-c2c(Cl)nc(Br)n2-c2ccc(OC(F)F)cc2)c(F)c1 [compound 546] |  | 98 | 100 | 99 | 100 | 100 | 100 | 0 |  |
| CCOc1cc(F)c(-c2c(Cl)ncn2-c2ccc(F)cc2)c(F)c1 [compound 702] |  | 99 | 99 | 99 | 100 | 100 | 86 | 59 |  |
| Fc1ccc(-n2c(Br)nc(Br)c2-c2ccc(Cl)c(F)c2)c(Cl)c1 [compound 301] |  | 95 | 96 | 0 | 100 | 94 | 91 | 6 |  |
| Cc1nc(Cl)c(-c2c(F)cc(F)cc2F)n1-c1cccc(OC(F)F)c1 [compound 609] |  | 99 | 100 | 100 | 99 | 100 | 100 | 100 |  |
| Cc1nc(Cl)c(Cc2c(F)cc(F)cc2F)n1-c1cc(Cl)cc(Cl)c1 [compound 540] |  | 3 | 21 | 0 | 15 | 0 | 0 | 0 |  |
| COc1cc(F)c(-c2c(Cl)nc(C)n2-c2ccc(OC)nc2)c(F)c1 [compound 714] |  | 99 | 100 | 100 | 100 | 100 | 100 | 100 |  |
| Cc1nc(Cl)c(-c2c(F)cccc2F)n1-c1ccc2c(c1)OC(F)(F)O2 [compound 608] |  |  |  |  |  |  |  |  | Test G disease control rating (Septoria tritici; 40 ppm (marked *)): 4* %; Test H disease control rating ([3]; 40 ppm (marked *)): 7* %; Test J disease control rating ([1]; 40 ppm (marked *)): 0* %; Test F disease control rating (Septoria nodorum; 40 ppm (marked *)): 0* %; Test C disease control rating (Botrytis cinerea; 40 ppm (marked *)): 17* %; Test D disease control rating (Alternaria solani; 40 ppm (marked *)): 0* %; Test I disease control rating ([2]; 40 ppm (marked *)): 41* % |
| COc1cc(F)c(-c2c(Cl)nc(Cl)n2Cc2ccc(C)cc2)c(F)c1 [compound 291] |  |  |  |  |  |  |  |  | Test G disease control rating (Septoria tritici; 200 ppm, 0 = no control): 94%; Test H disease control rating ([3]; 200 ppm, 0 = no control): 6%; Test J disease control rating ([1]; 200 ppm, 0 = no control): 94%; Test F disease control rating (Septoria nodorum; 200 ppm, 0 = no control): 0%; Test C disease control rating (Botrytis cinerea; 200 ppm, 0 = no control): 99%; Test D disease control rating (Alternaria solani; 200 ppm, 0 = no control): 80%; Test I disease control rating ([2]; 200 ppm, 0 = no control): 98% |
| Cc1nc(Cl)c(-c2c(F)cccc2F)n1-c1ccc(Cl)c2ccccc12 [compound 304] |  |  |  |  |  |  |  |  | Test G disease control rating (Septoria tritici; [6]): 27* %; Test H disease control rating [3, 6]: 0* %; Test J disease control rating [1, 6]: 0* %; Test F disease control rating (Septoria nodorum; [6]): 0* %; Test C disease control rating (Botrytis cinerea; [6]): 0* %; Test D disease control rating (Alternaria solani; [6]): 0* %; Test I disease control rating [2, 6]: 0* % |
| COc1cc(F)c(-c2c(Cl)ncn2-c2cccc(OC(F)(F)F)c2)c(F)c1 [compound 558] |  | 94 | 100 | 0 | 100 | 0 | 99 | 15 |  |

Source: patent publication US20110045101A1, “FUNGICIDAL SUBSTITUTED AZOLES” (E.I. Du Pont De Nemours and Company, priority 2009, published 2011)
